Test [1] has as its target T1, human metabotropic glutamate receptor mGluR5 (Homo sapiens, UniProt P41594).
T1 construct: expressed in transfected cells; host or cells: CHO-K1
Briefly: Cytosolic calcium studies with stably transfected cells (CHO-K1). Format: cell-based. On the procedure:
Functional Assay of mGluR5 Receptors Cytosolic Calcium Studies with Stably Transfected Cells
Chinese hamster ovary cells (CHO-K1 cells), stably transfected for inducible expression of a human metabotropic glutamate receptor mGluR5, are seeded into black clear bottom 96 well plates at a density of 35.000 cells per well. The standard growth medium used (Dulbecco's modified Eagle Medium, DMEM plus L-proline) contains the appropriate inducer isopropyl-β-D-thiogalactopyranosid (IPTG) to achieve optimal receptor expression. One day after seeding the growth medium is exchanged for reconstituted Ca-Kit (Molecular Devices, USA) and incubated for one hour. Ca-Kit is reconstituted in an assay buffer containing 20 mM HEPES pH 7.4, glutamic-pyruvate transaminase, pyridoxal phosphate and sodium pyruvate in Hank's balanced salt solution (HBBS). Agonistic compounds to the receptor elicit increases in cytosolic calcium which can be measured as increases in fluorescence signals by use of a fluorescence imaging plate reader (Molecular Devices). […] Similarly, for the characterization of positive allosteric modulators, a dilution series of the test compound is added online to 384 well plates containing the described dye loaded cells and after a preincubation time of 5 minutes stimulated by a basal cell concentration of the agonist L-glutamate giving about 20% of the maximal signal.
(§1) The fluorescence signal increase after addition of agonist reflects the increase of cytosolic calcium. Inconsistencies in the amount of cells per well are normalised by using the spatial uniformity correction of the FLIPR operating software Screenworks. The mean of replicated temporal data (n=3-5) is calculated and used for graphical representation. For the evaluation of the pharmacology, the calcium changes in response to different concentrations of agonist or antagonist are determined using a maximum minus minimum (MaxMin) calculation.
(§2) All responses (RFU-values) are determined as percentage of control (=maximum response). EC50 and IC50 are calculated according the logistic equation using Prism 4.0 (GraphPad Software, USA).

For the next test, the target named is T2, mGluR5 receptors (Rattus norvegicus, UniProt P31424).
T2 construct: Primary astrocyte cultures are prepared from cortices of newborn rats; endogenous in cells; host or cells: primary rat cortical astrocytes (Sprague-Dawley pups)
Briefly: Cytosolic calcium studies with cultured rat astrocytes. Format: cell-based. On the procedure:
Primary astrocyte cultures are prepared from cortices of newborn rats as described by Booher and Sensenbrenner (1972, Neurobiology 2(3):97-105). Briefly, Sprague-Dawley rat pups (2-4 d old) are decapitated and neocortices are dissected, disintegrated with a nylon filter (pore size 80 μm) and carefully triturated. The cell suspension is plated on poly-D-lysine pre-coated flasks (Costar, Netherlands) and cultivated in Dulbecco's Modified Eagle's Medium (DMEM, Invitrogen, Germany) supplemented with 10% foetal calf serum (FCS, Sigma, Germany), 4 mM glutamine and […] gentamycin (both Biochrom, Germany) at 37° C. in a humidified atmosphere of 5% CO2/95% air for 7 days with exchanging the medium at day 2 and 6.
After 7 days in vitro (DIV), cells are shaken overnight at 250 rpm to remove oligodendrocytes and microglia. The next day, astrocytes are rinsed twice with CMF-PBS (calcium- and magnesium-free phosphate buffered saline, Biochrom, Germany), trypsinized and subplated on poly-D-lysine pre-coated 96-well plates (Greiner, Germany) at a density of 40,000 cells/well. 24 h after establishing the secondary culture the astrocytes are rinsed with PBS″ (phosphate buffered saline, Biochrom, Germany) and fed with astrocyte-defined medium (ADM) consisting of DMEM containing 1× G5-supplement (Invitrogen, Germany), 0.5 μg/ml heparan sulfate, and 1.5 μg/ml fibronectin (both Sigma, Germany) (Miller et al., (1993) Brain Res. 618(1):175-8). 3 days later the medium is exchanged and the cells incubated for another 2-3 days, so that at the time of experiments astrocytes are 14-15 DIV.
The increase of cytosolic calcium after stimulation with the mGluR5 agonist L-quisqualate is measured using a fluorometric imaging plate reader (FLIPR) and the Ca-Kit (both Molecular Devices). Prior to addition of agonist or antagonist the medium is aspirated and cells are loaded for 2 h at RT with 150 μl of loading buffer consisting of Ca-sensitive dye reconstituted in sodium chloride (123 mM), potassium chloride (5.4 mM), magnesium chloride (0.8 mM), calcium chloride (1.8 mM), D-glucose (15 mM), and HEPES (20 mM), pH 7.3. Subsequently, plates are transferred to FLIPR to detect calcium increase with the addition of L-quisqualate (100 nM) measured as relative fluorescence units (RFU). If antagonists are tested, these compounds are pre-incubated for 10 minutes at RT before addition of the respective agonist.
Thereafter, concentration-response curves for the positive modulator are performed in the presence of a fixed concentration of quisqualate showing the biggest window for potentiation (normally 10-30 nM).
as §1, §2

A word on the EC50: it is the midpoint of the concentration-response curve.

T2 sequence (P31424 21-1203): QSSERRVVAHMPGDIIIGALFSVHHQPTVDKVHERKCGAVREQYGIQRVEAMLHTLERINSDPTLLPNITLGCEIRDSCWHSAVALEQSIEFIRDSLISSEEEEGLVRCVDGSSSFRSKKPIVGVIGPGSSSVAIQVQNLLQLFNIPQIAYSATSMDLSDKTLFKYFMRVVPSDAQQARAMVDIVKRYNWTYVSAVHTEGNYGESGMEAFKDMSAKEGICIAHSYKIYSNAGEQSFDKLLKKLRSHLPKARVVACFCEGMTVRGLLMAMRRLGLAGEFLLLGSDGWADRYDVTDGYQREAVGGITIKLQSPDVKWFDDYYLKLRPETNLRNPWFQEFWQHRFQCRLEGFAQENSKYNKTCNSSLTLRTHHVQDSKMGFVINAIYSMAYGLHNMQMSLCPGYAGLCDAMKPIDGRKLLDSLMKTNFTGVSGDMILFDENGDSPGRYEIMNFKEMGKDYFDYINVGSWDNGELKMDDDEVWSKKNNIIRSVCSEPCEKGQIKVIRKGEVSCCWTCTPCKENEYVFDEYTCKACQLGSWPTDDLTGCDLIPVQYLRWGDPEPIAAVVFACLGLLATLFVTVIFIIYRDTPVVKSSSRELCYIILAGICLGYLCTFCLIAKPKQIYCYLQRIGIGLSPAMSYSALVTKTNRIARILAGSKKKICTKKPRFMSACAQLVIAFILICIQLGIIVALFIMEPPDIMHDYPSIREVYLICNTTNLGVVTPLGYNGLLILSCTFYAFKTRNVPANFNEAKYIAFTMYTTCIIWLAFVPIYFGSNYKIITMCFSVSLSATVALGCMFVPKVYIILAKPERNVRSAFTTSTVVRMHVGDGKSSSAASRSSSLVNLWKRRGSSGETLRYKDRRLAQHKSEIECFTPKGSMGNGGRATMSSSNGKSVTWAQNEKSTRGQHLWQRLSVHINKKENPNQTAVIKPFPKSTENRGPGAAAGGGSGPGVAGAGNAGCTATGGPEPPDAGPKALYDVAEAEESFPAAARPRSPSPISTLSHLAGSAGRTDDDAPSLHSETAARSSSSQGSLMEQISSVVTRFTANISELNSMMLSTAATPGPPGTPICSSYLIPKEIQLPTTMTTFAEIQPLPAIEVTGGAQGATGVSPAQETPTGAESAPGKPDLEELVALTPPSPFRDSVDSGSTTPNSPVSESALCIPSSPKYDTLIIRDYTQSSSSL
T1 sequence (P41594 21-1212): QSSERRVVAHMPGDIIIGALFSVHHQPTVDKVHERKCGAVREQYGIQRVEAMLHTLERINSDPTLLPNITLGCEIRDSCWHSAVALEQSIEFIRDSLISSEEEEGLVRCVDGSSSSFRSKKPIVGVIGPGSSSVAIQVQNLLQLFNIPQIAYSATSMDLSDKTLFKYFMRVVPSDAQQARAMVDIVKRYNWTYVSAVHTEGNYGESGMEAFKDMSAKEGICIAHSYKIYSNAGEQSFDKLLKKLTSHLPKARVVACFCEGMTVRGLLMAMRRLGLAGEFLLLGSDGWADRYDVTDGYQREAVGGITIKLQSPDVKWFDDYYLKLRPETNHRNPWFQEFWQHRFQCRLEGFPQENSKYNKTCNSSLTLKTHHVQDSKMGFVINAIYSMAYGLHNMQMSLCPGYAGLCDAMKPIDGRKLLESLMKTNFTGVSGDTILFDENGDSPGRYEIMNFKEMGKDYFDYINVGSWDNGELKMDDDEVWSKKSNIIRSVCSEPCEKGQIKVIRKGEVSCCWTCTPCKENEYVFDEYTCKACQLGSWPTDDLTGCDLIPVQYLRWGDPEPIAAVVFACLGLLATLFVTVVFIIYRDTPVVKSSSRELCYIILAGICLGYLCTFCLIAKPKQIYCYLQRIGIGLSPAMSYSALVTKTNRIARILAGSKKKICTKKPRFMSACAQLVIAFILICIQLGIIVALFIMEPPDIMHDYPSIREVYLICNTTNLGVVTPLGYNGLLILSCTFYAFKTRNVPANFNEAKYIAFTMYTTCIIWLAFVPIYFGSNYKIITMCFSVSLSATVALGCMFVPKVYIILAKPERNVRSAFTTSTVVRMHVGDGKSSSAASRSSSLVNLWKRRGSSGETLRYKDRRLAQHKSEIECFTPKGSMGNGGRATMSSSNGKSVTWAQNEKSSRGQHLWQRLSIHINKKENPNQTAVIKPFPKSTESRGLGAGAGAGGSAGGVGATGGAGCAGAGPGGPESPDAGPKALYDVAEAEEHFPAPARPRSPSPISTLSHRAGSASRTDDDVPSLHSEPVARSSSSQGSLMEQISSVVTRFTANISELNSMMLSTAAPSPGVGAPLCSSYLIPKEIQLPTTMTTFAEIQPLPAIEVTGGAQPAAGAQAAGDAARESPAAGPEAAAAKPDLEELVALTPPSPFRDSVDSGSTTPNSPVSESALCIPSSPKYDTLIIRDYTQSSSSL

In the case of `Cc1ccc(C#Cc2cnc3cccnc3c2)cc1` [Example 93, 3-(p-Tolylethynyl)-[1,5]naphthyridine], the half-maximal effective concentration (EC50) in test [1] was 36 nM; at mGluR5 receptors, 77 nM.
On to `C(#Cc1cnc2ccnn2c1)c1ccccc1` [Example 1, 6-Phenylethynyl-pyrazolo[1,5-a]pyrimidine], for which the EC50 in test [1] was found to be 38 nM; on mGluR5 receptors, 89 nM.
In the case of `Fc1ccc(C#Cc2cnc3nccnc3c2)cc1` [Example 62, 7-(4-Fluoro-phenylethynyl)-pyrido[2,3-b]pyrazine], the figures for the 50% effective concentration (EC50) (in test [1]; on mGluR5 receptors) were 550 nM and 730 nM, respectively.
For `Fc1ccccc1C#Cc1cnc2ncsc2c1` [Example 45, 6-(2-Fluoro-phenylethynyl)-thiazolo[4,5-b]pyridine], the 50% effective concentration (EC50) in test [1] amounted to 65 nM; on mGluR5 receptors, 56 nM.
Regarding `C(#Cc1cnc2ncsc2c1)c1ccccc1` [Example 38, 6-Phenylethynyl-thiazolo[4,5-b]pyridine], the results for the EC50 (in test [1]; on mGluR5 receptors) were 10 nM and 73 nM, respectively.
As for `Cc1cccc(C#Cc2cnc3ncsc3c2)c1` [Example 73, 6-(m-Tolylethynyl)thiazolo[4,5-b]pyridine], the values for the EC50 (in test [1]; at mGluR5 receptors) were 20 nM and 14 nM, respectively.
Take `C(#Cc1cnc2ccnn2c1)C1=CCSCC1` [Example 10, 6-(3,6-Dihydro-2H-thiopyran-4-ylethynyl)-pyrazolo[1,5-a]pyrimidine]: the EC50 in test [1] amounted to 110 nM; on mGluR5 receptors, 50 nM.
Turning to `C(#Cc1cnc2cccnc2c1)c1ccncc1` [Example 100, 3-(Pyridin-4-ylethynyl)-1,5-naphthyridine], the EC50 came to 230 nM in test [1] and 310 nM at mGluR5 receptors.
For `Fc1cccc(C#Cc2cnc3cccnc3c2)c1` [Example 67, 3-(3-Fluoro-phenylethynyl)-[1,5]naphthyridine], the EC50 in test [1] was 6.8 nM; at mGluR5 receptors it was 8.6 nM.
`Fc1ccccc1C#Cc1ccc2ncnn2c1` [Example 54, 6-(2-Fluoro-phenylethynyl)-[1,2,4]triazolo[1,5-a]pyridine]: the EC50 in test [1] was 740 nM; on mGluR5 receptors, 470 nM.
With `Fc1cccc(C#Cc2cnc3ccnn3c2)c1` [Example 3, 6-(3-Fluoro-phenylethynyl)-pyrazolo[1,5-a]pyrimidine], the EC50 in test [1] was determined as 21 nM; on mGluR5 receptors, 76 nM.
With `Fc1ccc(C#Cc2cnc3ccnn3c2)cc1` [Example 4, 6-(4-Fluoro-phenylethynyl)-pyrazolo[1,5-a]pyrimidine], the concentration giving a half-maximal response (EC50) came to 120 nM in test [1] and 63 nM at mGluR5 receptors.
In the case of `O=C(c1cc2ccc(C#Cc3ccccc3)cn2n1)N1CCCCC1` [Example 32, (6-Phenylethynyl-pyrazolo[1,5-a]pyridin-2-yl)-piperidin-1-yl-methanone], the EC50 is 250 nM in test [1] and 480 nM on mGluR5 receptors.
`Cc1ccccc1C#Cc1cnc2cccnc2c1` [Example 94, 3-(o-Tolylethynyl)-[1,5]naphthyridine]: the EC50 turned out to be 410 nM in test [1] and 210 nM on mGluR5 receptors.
As for `C(#Cc1cnc2ncnn2c1)c1ccccc1` [Example 33, 6-Phenylethynyl-[1,2,4]triazolo[1,5-a]pyrimidine], the concentration giving a half-maximal response (EC50) came to 130 nM in test [1] and 230 nM on mGluR5 receptors.
Regarding `C(#Cc1cnc2nccnc2c1)c1ccccc1` [Example 39, 7-Phenylethynyl-pyrido[2,3-b]pyrazine], the EC50 was 35 nM in test [1] and 100 nM at mGluR5 receptors.
For `Fc1ccc(C#Cc2cnc3cccnc3c2)cc1` [Example 69, 3-(4-Fluoro-phenylethynyl)-[1,5]naphthyridine], the EC50 turned out to be 9.8 nM in test [1] and 12 nM on mGluR5 receptors.
`Fc1ccc(C#Cc2ccc3ncnn3c2)cc1` [Example 55, 6-(4-Fluoro-phenylethynyl)-[1,2,4]triazolo[1,5-a]pyridine]: the figures for the EC50 (in test [1]; at mGluR5 receptors) were 640 nM and 400 nM, respectively.
`C(#Cc1cnc2ccnn2c1)C1=CCCCC1` [Example 8, 6-Cyclohex-1-enylethynyl-pyrazolo[1,5-a]pyrimidine]: the EC50 in test [1] is 23 nM; at mGluR5 receptors it was 70 nM.
Take `O=C(c1nc2ncc(C#Cc3ccccc3)cc2o1)N1CCCCC1` [Example 43, (6-Phenylethynyl-oxazolo[4,5-b]pyridin-2-yl)-piperidin-1-yl-methanone]: the half-maximal effective concentration (EC50) in test [1] is 150 nM; on mGluR5 receptors, 60 nM.
Regarding `Cc1ccccc1C#Cc1cnc2ncsc2c1` [Example 75, 6-(o-Tolylethynyl)thiazolo[4,5-b]pyridine], the EC50 amounted to 2300 nM in test [1] and 530 nM at mGluR5 receptors.
For the compound `Fc1cccc(C#Cc2cnc3ncnn3c2)c1` [Example 47, 6-(3-Fluoro-phenylethynyl)-[1,2,4]triazolo[1,5-a]pyrimidine], the figures for the concentration for a half-maximal effect (EC50) (in test [1]; on mGluR5 receptors) were 1300 nM and 1500 nM, respectively.
`O=C(c1nc2ncc(C#CC3=CCCCC3)cc2o1)N1CCCCC1` [Example 72, (6-Cyclohex-1-enylethynyl-oxazolo[4,5-b]pyridin-2-yl)-piperidin-1-yl-methanone]: the figures for the EC50 (in test [1]; on mGluR5 receptors) were 330 nM and 320 nM, respectively.
Take `C(#Cc1cnc2nccnc2c1)C1=CCCCC1` [Example 40, 7-Cyclohex-1-enylethynyl-pyrido[2,3-b]pyrazine]: the concentration for a half-maximal effect (EC50) stood at 120 nM in test [1] and 650 nM on mGluR5 receptors.
`Fc1ccccc1C#Cc1cnc2cccnc2c1` [Example 68, 3-(2-Fluoro-phenylethynyl)-[1,5]naphthyridine]: the EC50 in test [1] stood at 19 nM; at mGluR5 receptors, 24 nM.
Turning to `Fc1cc(F)cc(C#Cc2cnc3ncsc3c2)c1` [Example 80, 6-((3,5-Difluorophenyl)ethynyl)thiazolo[4,5-b]pyridine], the figures for the concentration giving a half-maximal response (EC50) (in test [1]; at mGluR5 receptors) were 660 nM and 440 nM, respectively.
Regarding `Cc1cccc(C#Cc2cnc3cccnc3c2)c1` [Example 95, 3-(m-Tolylethynyl)-[1,5]naphthyridine], the EC50 worked out at 5.5 nM in test [1] and 2.3 nM on mGluR5 receptors.
`Fc1cccc(C#Cc2cnc3ncsc3c2)c1` [Example 44, 6-(3-Fluoro-phenylethynyl)-thiazolo[4,5-b]pyridine]: the EC50 in test [1] was 23 nM; at mGluR5 receptors, 37 nM.
With `C(#Cc1ccc2ncnn2c1)c1ccccc1` [Example 37, 6-Phenylethynyl-[1,2,4]triazolo[1,5-a]pyridine], the EC50 (in test [1]; on mGluR5 receptors) was 110 nM in each case.

(Values after patent US20120178742A1, “METABOTROPIC GLUTAMATE RECEPTOR MODULATORS” (MERZ PHARMA GmbH & CO. KGaA, priority 2009, published 2012).)
